This assay deals with T1, human GPR40 (Homo sapiens, UniProt O14842).
T1 construct: expressed in transfected cells; host or cells: CHO-K1
T1 sequence (O14842 whole entry): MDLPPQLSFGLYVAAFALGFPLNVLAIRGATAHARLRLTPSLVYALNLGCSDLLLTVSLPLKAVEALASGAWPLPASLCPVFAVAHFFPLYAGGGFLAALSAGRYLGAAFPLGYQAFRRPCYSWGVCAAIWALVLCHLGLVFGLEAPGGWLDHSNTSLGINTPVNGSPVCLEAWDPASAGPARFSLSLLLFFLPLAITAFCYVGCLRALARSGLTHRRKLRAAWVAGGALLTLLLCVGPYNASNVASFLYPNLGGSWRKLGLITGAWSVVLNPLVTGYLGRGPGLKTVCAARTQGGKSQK
The experiment in a line: Induction of Ca2+ (calcium flux assay) using human GPR40 expression cell line. It is filed as cell-based. The settings on record: read-out: EC0.5. The gist of the method: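 CHO-K1 cells stably transfected with human GPR40, plated 24 h, loaded 1 h at 37° C with Calcium 5 dye in HBSS/HEPES pH 7.4. Intracellular calcium change after compound addition read on FlexStation; concentration–response of relative activity used to derive EC0.5.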
Background: A change in cytosolic calcium serves as a functional read-out for many receptors and channels.
As to `O=C(O)CCc1ccc(NCc2ccc3ccn(-c4ccsc4)c3c2)cc1` [Example 3, 3-{4-[(1-thiophen-3-yl-1H-indol-6-ylmethyl)-amino]-phenyl}-propanoic acid], the EC50 stood at 10 nM. In the case of `CC#C[C@@H](CC(=O)O)c1ccc(OCc2ccc3c(c2)c(C)nn3C(C)C)cc1` [Example 187, (S)-3-[4-(1-isopropyl-3-methyl-1H-indazol-5-ylmethoxy)-phenyl]-hex-4-ynoic acid], the EC50 fell in the range of 1 to 50 nM. Under `CC#C[C@@H](CC(=O)O)c1ccc(OCc2cc(C)c3c(cnn3C3CCCC3)c2)cc1` [Example 171, (S)-3-[4-(1-cyclopentyl-7-methyl-1H-indazol-5-ylmethoxy)-phenyl]-hex-4-ynoic acid] stands 1 to 50 nM. Under `CC#C[C@@H](CC(=O)O)c1ccc(OCc2cccc3c2c(F)nn3CCCC)cc1` [Example 198, (S)-3-[4-(1-butyl-3-fluoro-1H-indazol-4-ylmethoxy)-phenyl]-hex-4-ynoic acid] stands 16 nM; under `CCC(CC(=O)O)c1ccc(OCc2ccc3c(cnn3Cc3ccccc3)c2)cc1` (centres unmarked) [Example 159, 3-[4-(1-benzyl-1H-indazol-5-ylmethoxy)-phenyl]-pentanoic acid], 100 nM. Under `CC#C[C@@H](CC(=O)O)c1ccc(OCc2ccc3c(c2)c(CC(C)C)nn3C)cc1` [Example 186, (S)-3-[4-(3-isobutyl-1-methyl-1H-indazol-5-ylmethoxy)-phenyl]-hex-4-ynoic acid] stands 1 to 50 nM. On to `CC#C[C@@H](CC(=O)O)c1ccc(OCc2ccc3c(cnn3CCCOC)c2)cc1` [Example 176, (S)-3-{4-[1-(3-methoxy-propyl)-1H-indazol-5-ylmethoxy]-phenyl}-hex-4-ynoic acid], for which the EC50 was 40 nM.

For `O=C(O)CC1CCc2cc(OCc3ccc4c(cnn4Cc4ccccc4)c3)ccc21` (centres unmarked) [Example 118, [5-(1-benzyl-1H-indazol-5-ylmethoxy)-indan-1-yl]-acetic acid], the EC50 was determined as 200 nM. Under `CC#C[C@@H](CC(=O)O)c1ccc(OCc2cccc3c2cnn3CC2CC2)cc1` [Example 199, (S)-3-[4-(1-cyclopropylmethyl-1H-indazol-4-ylmethoxy)-phenyl]-hex-4-ynoic acid] stands 17 nM; under `CC#C[C@@H](CC(=O)O)c1ccc(OCc2ccc3cn(Cc4ccccc4)nc3c2)cc1` [Example 58, (S)-3-[4-(2-benzyl-2H-indazol-6-ylmethoxy)-phenyl]-hex-4-ynoic acid], 1 to 50 nM. Under `O=C(O)CCc1ccc(NCc2ccc3ccn(Cc4ccccc4)c3c2)cc1` [Example 2, 3-{4-[(1-benzyl-1H-indol-6-ylmethyl)-amino]-phenyl}-propanoic acid] stands 30 nM. With `O=C(O)CC1CCCc2cc(OCc3ccc4c(cnn4Cc4ccccc4)c3)ccc21` (centres unmarked) [Example 119, [6-(1-benzyl-1H-indazol-5-ylmethoxy)-1,2,3,4-tetrahydro-naphthalen-1-yl]-acetic acid], the EC50 was determined as 60 nM. Under `O=C(O)CCc1ccc(NCc2ccc3ccn(-c4ccc(F)cc4)c3c2)cc1` [Example 10, 3-(4-{[1-(4-fluoro-phenyl)-1H-indol-6-ylmethyl]-amino}-phenyl)-propanoic acid] stands 700 nM; under `O=C(O)C[C@@H](c1ccc(OCc2ccc3cnn(CC4CC4)c3c2)cc1)c1ccon1` [Example 97, (S)-3-[4-(1-cyclopropylmethyl-1H-indazol-6-ylmethoxy)-phenyl]-3-isoxazol-3-yl-propanoic acid], 50 nM; under `CC#C[C@@H](CC(=O)O)c1ccc(OCc2cccc3c(CCC)nn(C)c23)cc1` [Example 210, (S)-3-[4-(1-methyl-3-propyl-1H-indazol-7-ylmethoxy)-phenyl]-hex-4-ynoic acid], 8 nM. Under `CC#C[C@@H](CC(=O)O)c1ccc(OCc2ccc3c(cnn3CCS(C)(=O)=O)c2)cc1` [Example 174, (S)-3-{4-[1-(2-methanesulfonyl-ethyl)-1H-indazol-5-ylmethoxy]-phenyl}-hex-4-ynoic acid] stands at least 500 nM.

Turning to `CC#C[C@@H](CC(=O)O)c1ccc(OCc2cc(C)c3nn(Cc4ccccc4)cc3c2)cc1` [Example 127, (S)-3-[4-(2-benzyl-7-methyl-2H-indazol-5-ylmethoxy)-phenyl]-hex-4-ynoic acid], the EC50 fell in the range of 1 to 50 nM. On to `O=C(O)CC1CCOc2cc(OCc3ccc4c(cnn4Cc4ccccn4)c3)ccc21` (centres unmarked) [Example 142, [7-(1-pyridine-2-ylmethyl-1H-indazol-5-ylmethoxy)-chroman-4-yl]-acetic acid], for which the EC50 is at least 500 nM.

For `CC#C[C@@H](CC(=O)O)c1ccc(OCc2ccc3c(cnn3C3CCCC3)c2)cc1` [Example 164, (S)-3-[4-(1-cyclopentyl-1H-indazol-5-ylmethoxy)-phenyl]-hex-4-ynoic acid], the EC50 is 1 to 50 nM. Under `CC#C[C@@H](CC(=O)O)c1ccc(OCc2ccc3c(cnn3CCOCC)c2)cc1` [Example 157, (S)-3-{4-[1-(2-ethoxy-ethyl)-1H-indazol-5-ylmethoxy]-phenyl}-hex-4-ynoic acid] stands 1 to 50 nM; under `CC#C[C@@H](CC(=O)O)c1ccc(OCc2ccc3ccn(CC(C)C)c3n2)cc1` [Example 115, (S)-3-[4-(1-isobutyl-1H-pyrrolo[2,3-b]pyridin-6-ylmethoxy)-phenyl]-hex-4-ynoic acid], 1 to 50 nM.

As for `CC#C[C@@H](CC(=O)O)c1ccc(OCc2ccc3cnn(Cc4cnc(C)cn4)c3c2)cc1` [Example 73, (S)-3-{4-[1-(5-methyl-pyrazin-2-ylmethyl)-1H-indazol-6-ylmethoxy]-phenyl}-hex-4-ynoic acid], the EC50 was in the range of 50 to 500 nM.

As to `CC#C[C@@H](CC(=O)O)c1ccc(OCc2ccc3ccn(Cc4ccc(CS(C)(=O)=O)cc4)c3c2C)cc1` [Example 45, (S)-3-{4-[1-(4-methanesulfonylmethyl-benzyl)-7-methyl-1H-indol-6-ylmethoxy]-phenyl}-hex-4-ynoic acid], the EC50 was 1 to 50 nM. In the case of `CC#C[C@@H](CC(=O)O)c1ccc(OCc2ccc3c(cnn3CCc3ccccc3)c2)cc1` [Example 134, (S)-3-[4-(1-phenethyl-1H-indazol-5-ylmethoxy)-phenyl]-hex-4-ynoic acid], the EC50 stood at 4 nM. Consider `CC#C[C@@H](CC(=O)O)c1ccc(OCc2ccc3ccn(Cc4ccc(S(C)(=O)=O)cc4)c3c2C)cc1` [Example 27, (S)-3-{4-[1-(4-methanesulfonyl-benzyl)-7-methyl-1H-indol-6-ylmethoxy]-phenyl}-hex-4-ynoic acid], for which the EC50 was 30 nM.

`CC#C[C@@H](CC(=O)O)c1ccc(OCc2ccc3c(CN4CCCC(F)(F)C4)nn(CC(C)C)c3c2C)cc1` [Example 227, (S)-3-{4-[3-(3,3-difluoro-piperidin-1-ylmethyl)-1-isobutyl-7-methyl-1H-indazol-6-ylmethoxy]-phenyl}-hex-4-ynoic acid]: the EC50 was 5 nM. Under `CC#C[C@@H](CC(=O)O)c1ccc(OCc2ccc3cnn(CC(C)C)c3c2C)cc1` [Example 211, (S)-3-[4-(1-isobutyl-7-methyl-1H-indazol-6-ylmethoxy)-phenyl]-hex-4-ynoic acid] stands 4 nM; under `Cc1c(COc2ccc([C@H](CC(=O)O)c3ccon3)cc2)ccc2ccn(Cc3ccc(F)cc3)c12` [Example 84, (S)-3-{4-[1-(4-fluoro-benzyl)-7-methyl-1H-indol-6-ylmethoxy]-phenyl}-3-isoxazol-3-yl-propanoic acid], 50 nM; under `CC#C[C@@H](CC(=O)O)c1ccc(OCc2ccc3ccn(Cc4ccc(F)c(F)c4)c3c2C)cc1` [Example 51, (S)-3-{4-[1-(3,4-difluoro-benzyl)-7-methyl-1H-indol-6-ylmethoxy]-phenyl}-hex-4-ynoic acid], 50 to 500 nM. Under `Cc1c(COc2ccc([C@H](CC(=O)O)c3ccon3)cc2)ccc2ccn(Cc3cnccn3)c12` [Example 89, (S)-3-isoxazol-3-yl-3-[4-(7-methyl-1-pyrazin-2-ylmethyl-1H-indol-6-ylmethoxy)-phenyl]-propanoic acid] stands 30 nM; under `CC#C[C@@H](CC(=O)O)c1ccc(OCc2ccc3c(cnn3CCOC)c2)cc1` [Example 175, (S)-3-{4-[1-(2-methoxy-ethyl)-1H-indazol-5-ylmethoxy]-phenyl}-hex-4-ynoic acid], 50 to 500 nM.

`CC#C[C@@H](CC(=O)O)c1ccc(OCc2ccc3c(c2)ncn3Cc2ccccc2)cc1` [Example 125, (S)-3-[4-(1-benzyl-1H-benzoimidazol-5-ylmethoxy)-phenyl]-hex-4-ynoic acid]: the EC50 is 20 nM. As to `CC#C[C@@H](CC(=O)O)c1ccc(OCc2ccc3nnn(CC(C)C)c3c2)cc1` [Example 166, (S)-3-[4-(3-isobutyl-3H-benzotriazol-5-ylmethoxy)-phenyl]-hex-4-ynoic acid], the EC50 was 50 to 500 nM. On to `CC#C[C@@H](CC(=O)O)c1ccc(OCc2cc(C)c3c(cnn3C(C)C)c2)cc1` [Example 168, (S)-3-[4-(1-isopropyl-7-methyl-1H-indazol-5-ylmethoxy)-phenyl]-hex-4-ynoic acid], for which the EC50 fell in the range of 1 to 50 nM.

For the compound `CC#C[C@@H](CC(=O)O)c1ccc(OCc2ccc3ccn(Cc4ccccc4)c3n2)cc1` [Example 90, (S)-3-[4-(1-benzyl-1H-pyrrolo[2,3-b]pyridin-6-ylmethoxy)-phenyl]-hex-4-ynoic acid], the EC50 was determined as 10 nM. Under `CC#C[C@@H](CC(=O)O)c1ccc(OCc2ccc3nn(CC4CCOC4)cc3c2)cc1` (stereo partly drawn) [Example 154, (S)-3-{4-[2-(tetrahydrofuran-3-ylmethyl)-2H-indazol-5-ylmethoxy]-phenyl}-hex-4-ynoic acid] stands at least 500 nM; under `CC#C[C@@H](CC(=O)O)c1ccc(OCc2ccc3cnn(C(C)C)c3c2C)cc1` [Example 220, (S)-3-[4-(1-isopropyl-7-methyl-1H-indazol-6-ylmethoxy)-phenyl]-hex-4-ynoic acid], 3 nM; under `O=C(O)CC1CCOc2cc(OCc3ccc4c(cnn4CCc4ccccc4)c3)ccc21` (centres unmarked) [Example 135, [7-(1-phenethyl-1H-indazol-5-ylmethoxy)-chroman-4-yl]-acetic acid], 200 nM.

The record behind these values is patent US9988379B2, “GPR40 receptor agonist, methods of preparing the same, and pharmaceutical compositions containing the same as an active agent” (LG CHEM, LTD., priority 2012, dated 2018).
